Experimental data from US20240324627A1, “USE OF A FEED ADDITIVE IN LOW ENERGY FEED FOR PIGS” (Alzchem Trostberg GmbH, priority 2021, published 2024).

Assays:
fattening pigs = test: 39-day feeding experiment in fattening pigs with low energy feed; assay type: in vivo
Excerpt: In a 39-day feeding experiment, three different feed concepts were fed to fattening pigs with an initial weight of ˜65 kg. For each feeding concept, 80 pigs in 16 pens (5 animals per pen) were examined. The pens were exclusively occupied by animals of the same gender, i.e. females or non-castrated boars, in a 1:1 gender ratio. The three different feed groups were optimized for the content of metabolic energy (ME) and the other raw nutrients based on the supply recommendations of the NRC (National Research Council of the National Academies, 2012: Nutrient requirements of Swine/Committee on Nutrient Requirements of Swine, Board on Agriculture and Natural Resources, Division on Earth and Life Studies.-11th rev. ed. p. cm.). A positive control group with 13.0 MJ ME covering the energy requirements was compared with a negative control group with 12.8 MJ ME reduced by 0.2 MJ. In a guanidinoacetic acid group supplemented with 600 g/t, an energy content of 12.7 MJ ME was adjusted. The fattening phase lasted 39 days. On day 40, the animals that had already reached the slaughter weight of ˜108 kg were slaughtered. For this reason, data was recorded on this day. The rations were based on wheat, wheat semolina bran, rapeseed extraction meal and soy extraction meal. Animal fat was also added in relevant amounts. The diets were isonitrogenous, i.e. the supply of crude protein and digestible amino acids was identical in all three treatment groups. [table] Feed conversion is the amount of feed consumed that leads to a weight gain of the animal of one kilogram. Energy utilization is the energy intake per kilogram of weight gain.

pigs = settings: Weber et al. 2017, cited from earlier work
[1] = 600 g/t (0.06%) in 12.7 MJ ME/kg feed

N=C(N)NCC(=O)O [guanidinoacetic acid, Guanidinoacetic acid]
Daily feed intake, day 1-39 (fattening pigs; [1]): 2223 g | Daily weight gain, day 1-39 (fattening pigs; [1]): 828 g | Energy utilization, day 1-39 (fattening pigs; [1]): 34.2 MJ ME/kg gain | Feed conversion, day 1-39 (fattening pigs; [1]): 2.69 kg feed/kg gain | Live weight, day 39 (fattening pigs; [1]): 96.2 kg | Average slaughter weight (fattening pigs; 600 g/t in 12.7 MJ ME/kg feed): 107.3 kg | Daily weight gains in the fattening phase (fattening pigs; 600 g/t in 12.7 MJ ME/kg feed): approximately 830 g/d | Energy deficit compensated (fattening pigs; addition of 600 g/t, daily feed intake at level of positive control): 0.2 MJ ME | Improvement of feed conversion ratio compared to the negative control (fattening pigs; fattening phase, vs 12.8 MJ ME negative control): 23 points | Improvement of feed conversion ratio compared to the positive control (fattening pigs; fattening phase, vs 13.0 MJ ME positive control): 6 points | Less energy required per kg gain vs negative control (fattening pigs; fattening phase, vs negative control): 4.3 MJ ME | Less energy required per kg gain vs positive control (fattening pigs; fattening phase, vs positive control): 2.1 MJ ME | Average number of fattening days (from the start of the fattening phase) (fattening pigs; until slaughter, 600 g/t in 12.7 MJ ME/kg feed): 52 | Energy utilization improvement (fattening pigs; vs positive control): approximately 5.8% | Feed conversion improvement (fattening pigs; vs positive control): approximately 2.2% | Feed uptake (pigs; addition to high energy feed): slightly lower | Daily increase (weight gain) (pigs; common feed): only a slight daily increase at the threshold of significance | Feed conversion (pigs; common feed): slight improvement
